Reference: the NIST ThermoML archive (doi:10.1016/j.jct.2012.03.031)

Assay: molar heat capacity at constant pressure
Conditions: 101.33 kPa

CCCCc1ccc(C(=O)Oc2ccc(C#N)c(F)c2)cc1 [4-cyano-3-fluorophenyl 4-butylbenzoate]
Conditions | molar heat capacity at constant pressure [J/K/mol]
221.07 K, Crystal 2, Small (less than 1 g) adiabatic calorimetry | 311.55
221.65 K, Crystal 1, Small (less than 1 g) adiabatic calorimetry | 297.64
222.84 K, Crystal 1, Small (less than 1 g) adiabatic calorimetry | 299.23
223.8 K, Crystal 2, Small (less than 1 g) adiabatic calorimetry | 314.36
223.83 K, Crystal 1, Small (less than 1 g) adiabatic calorimetry | 300.59
224.03 K, Crystal 1, Small (less than 1 g) adiabatic calorimetry | 300.76
225.22 K, Crystal 1, Small (less than 1 g) adiabatic calorimetry | 302.28
226.41 K, Crystal 1, Small (less than 1 g) adiabatic calorimetry | 303.96
226.54 K, Crystal 2, Small (less than 1 g) adiabatic calorimetry | 317.16
226.65 K, Crystal 1, Small (less than 1 g) adiabatic calorimetry | 304.49
227.59 K, Crystal 1, Small (less than 1 g) adiabatic calorimetry | 305.68
228.77 K, Crystal 1, Small (less than 1 g) adiabatic calorimetry | 307.52
229.29 K, Crystal 2, Small (less than 1 g) adiabatic calorimetry | 320.04
229.47 K, Crystal 1, Small (less than 1 g) adiabatic calorimetry | 308.62
229.94 K, Crystal 1, Small (less than 1 g) adiabatic calorimetry | 309.12
230 K, Crystal 1, Vacuum adiabatic calorimetry | 309.39
230 K, Crystal 2, Vacuum adiabatic calorimetry | 320.68
231.12 K, Crystal 1, Small (less than 1 g) adiabatic calorimetry | 310.59
232.06 K, Crystal 2, Small (less than 1 g) adiabatic calorimetry | 322.55
232.28 K, Crystal 1, Small (less than 1 g) adiabatic calorimetry | 312.29
232.3 K, Crystal 1, Small (less than 1 g) adiabatic calorimetry | 312.7
233.45 K, Crystal 1, Small (less than 1 g) adiabatic calorimetry | 313.85
234.61 K, Crystal 1, Small (less than 1 g) adiabatic calorimetry | 315.48
234.84 K, Crystal 2, Small (less than 1 g) adiabatic calorimetry | 325.57
235.14 K, Crystal 1, Small (less than 1 g) adiabatic calorimetry | 316.89
235.77 K, Crystal 1, Small (less than 1 g) adiabatic calorimetry | 317.02
236.93 K, Crystal 1, Small (less than 1 g) adiabatic calorimetry | 318.75
237.63 K, Crystal 2, Small (less than 1 g) adiabatic calorimetry | 328.79
238.05 K, Crystal 1, Small (less than 1 g) adiabatic calorimetry | 321.4
238.08 K, Crystal 1, Small (less than 1 g) adiabatic calorimetry | 320.42
239.23 K, Crystal 1, Small (less than 1 g) adiabatic calorimetry | 322.04
240 K, Crystal 1, Vacuum adiabatic calorimetry | 324.53
240 K, Crystal 2, Vacuum adiabatic calorimetry | 332.29
240.38 K, Crystal 1, Small (less than 1 g) adiabatic calorimetry | 323.67
240.43 K, Crystal 2, Small (less than 1 g) adiabatic calorimetry | 332.92
241.04 K, Crystal 1, Small (less than 1 g) adiabatic calorimetry | 326.21
241.52 K, Crystal 1, Small (less than 1 g) adiabatic calorimetry | 325.48
242.66 K, Crystal 1, Small (less than 1 g) adiabatic calorimetry | 327.48
243.24 K, Crystal 2, Small (less than 1 g) adiabatic calorimetry | 336.05
243.8 K, Crystal 1, Small (less than 1 g) adiabatic calorimetry | 328.63
244.07 K, Crystal 1, Small (less than 1 g) adiabatic calorimetry | 330.21
246.07 K, Crystal 1, Small (less than 1 g) adiabatic calorimetry | 331.47
247.13 K, Crystal 1, Small (less than 1 g) adiabatic calorimetry | 334.86
247.2 K, Crystal 1, Small (less than 1 g) adiabatic calorimetry | 333.06
248.33 K, Crystal 1, Small (less than 1 g) adiabatic calorimetry | 334.82
249.45 K, Crystal 1, Small (less than 1 g) adiabatic calorimetry | 336.63
250 K, Crystal 1, Vacuum adiabatic calorimetry | 339.52
250.22 K, Crystal 1, Small (less than 1 g) adiabatic calorimetry | 339.88
250.57 K, Crystal 1, Small (less than 1 g) adiabatic calorimetry | 338.23
251.69 K, Crystal 1, Small (less than 1 g) adiabatic calorimetry | 339.75
252.81 K, Crystal 1, Small (less than 1 g) adiabatic calorimetry | 341.78
253.35 K, Crystal 1, Small (less than 1 g) adiabatic calorimetry | 344.81
253.92 K, Crystal 1, Small (less than 1 g) adiabatic calorimetry | 343.44
255.03 K, Crystal 1, Small (less than 1 g) adiabatic calorimetry | 345.42
256.14 K, Crystal 1, Small (less than 1 g) adiabatic calorimetry | 347.42
256.51 K, Crystal 1, Small (less than 1 g) adiabatic calorimetry | 349.77
257.24 K, Crystal 1, Small (less than 1 g) adiabatic calorimetry | 349.12
258.34 K, Crystal 1, Small (less than 1 g) adiabatic calorimetry | 350.75
259.44 K, Crystal 1, Small (less than 1 g) adiabatic calorimetry | 352.9
259.7 K, Crystal 1, Small (less than 1 g) adiabatic calorimetry | 354.86
260 K, Crystal 1, Vacuum adiabatic calorimetry | 355.31
260.54 K, Crystal 1, Small (less than 1 g) adiabatic calorimetry | 354.79
261.63 K, Crystal 1, Small (less than 1 g) adiabatic calorimetry | 356.59
262.72 K, Crystal 1, Small (less than 1 g) adiabatic calorimetry | 358.59
262.92 K, Crystal 1, Small (less than 1 g) adiabatic calorimetry | 359.67
263.8 K, Crystal 1, Small (less than 1 g) adiabatic calorimetry | 360.46
264.89 K, Crystal 1, Small (less than 1 g) adiabatic calorimetry | 362.63
265.96 K, Crystal 1, Small (less than 1 g) adiabatic calorimetry | 364.99
266.18 K, Crystal 1, Small (less than 1 g) adiabatic calorimetry | 364.4
267.04 K, Crystal 1, Small (less than 1 g) adiabatic calorimetry | 367.18
268.11 K, Crystal 1, Small (less than 1 g) adiabatic calorimetry | 369.24
269.18 K, Crystal 1, Small (less than 1 g) adiabatic calorimetry | 371.72
269.46 K, Crystal 1, Small (less than 1 g) adiabatic calorimetry | 369.89
270 K, Crystal 1, Vacuum adiabatic calorimetry | 371.52
270.25 K, Crystal 1, Small (less than 1 g) adiabatic calorimetry | 373.77
271.31 K, Crystal 1, Small (less than 1 g) adiabatic calorimetry | 375.16
272.37 K, Crystal 1, Small (less than 1 g) adiabatic calorimetry | 378.43
272.76 K, Crystal 1, Small (less than 1 g) adiabatic calorimetry | 379.8
273.42 K, Crystal 1, Small (less than 1 g) adiabatic calorimetry | 380.54
274.47 K, Crystal 1, Small (less than 1 g) adiabatic calorimetry | 383.84
275.53 K, Crystal 1, Small (less than 1 g) adiabatic calorimetry | 385.34
276.08 K, Crystal 1, Small (less than 1 g) adiabatic calorimetry | 388.45
276.58 K, Crystal 1, Small (less than 1 g) adiabatic calorimetry | 389.76
277.62 K, Crystal 1, Small (less than 1 g) adiabatic calorimetry | 392.5
278.67 K, Crystal 1, Small (less than 1 g) adiabatic calorimetry | 396.43
279.42 K, Crystal 1, Small (less than 1 g) adiabatic calorimetry | 397.42
279.7 K, Crystal 1, Small (less than 1 g) adiabatic calorimetry | 398.5
280 K, Crystal 1, Vacuum adiabatic calorimetry | 397.19
281.47 K, Crystal 1, Small (less than 1 g) adiabatic calorimetry | 402.8
282.22 K, Crystal 1, Small (less than 1 g) adiabatic calorimetry | 405.47
282.99 K, Crystal 1, Small (less than 1 g) adiabatic calorimetry | 408.97
283.75 K, Crystal 1, Small (less than 1 g) adiabatic calorimetry | 414.38
284.5 K, Crystal 1, Small (less than 1 g) adiabatic calorimetry | 422.32
285.25 K, Crystal 1, Small (less than 1 g) adiabatic calorimetry | 436.88
285.98 K, Crystal 1, Small (less than 1 g) adiabatic calorimetry | 474.25

Liquid
Conditions | molar heat capacity at constant pressure [J/K/mol]
289.24 K, Small (less than 1 g) adiabatic calorimetry | 479.05
289.97 K, Small (less than 1 g) adiabatic calorimetry | 476.93
290 K, Vacuum adiabatic calorimetry | 473.62
290.7 K, Small (less than 1 g) adiabatic calorimetry | 476.25
291.67 K, Small (less than 1 g) adiabatic calorimetry | 476.45
291.8 K, Small (less than 1 g) adiabatic calorimetry | 475.34
293.12 K, Small (less than 1 g) adiabatic calorimetry | 477.07
294.48 K, Small (less than 1 g) adiabatic calorimetry | 476.74
295.04 K, Small (less than 1 g) adiabatic calorimetry | 477.7
297.17 K, Small (less than 1 g) adiabatic calorimetry | 477.75
297.43 K, Small (less than 1 g) adiabatic calorimetry | 478.84
298.15 K, Vacuum adiabatic calorimetry | 478.16
299.87 K, Small (less than 1 g) adiabatic calorimetry | 478.89
300 K, Vacuum adiabatic calorimetry | 478.96
302.6 K, Small (less than 1 g) adiabatic calorimetry | 480.42
305.34 K, Small (less than 1 g) adiabatic calorimetry | 481.47
308.1 K, Small (less than 1 g) adiabatic calorimetry | 482.84
310 K, Vacuum adiabatic calorimetry | 483.98
310.87 K, Small (less than 1 g) adiabatic calorimetry | 484.5
313.66 K, Small (less than 1 g) adiabatic calorimetry | 486.08
316.47 K, Small (less than 1 g) adiabatic calorimetry | 487.53
319.29 K, Small (less than 1 g) adiabatic calorimetry | 489.61
320 K, Vacuum adiabatic calorimetry | 490.09
322.13 K, Small (less than 1 g) adiabatic calorimetry | 491.52
324.98 K, Small (less than 1 g) adiabatic calorimetry | 493.16
327.85 K, Small (less than 1 g) adiabatic calorimetry | 495.06
330 K, Vacuum adiabatic calorimetry | 496.49
330.74 K, Small (less than 1 g) adiabatic calorimetry | 496.98
333.64 K, Small (less than 1 g) adiabatic calorimetry | 498.96
336.55 K, Small (less than 1 g) adiabatic calorimetry | 500.86
339.48 K, Small (less than 1 g) adiabatic calorimetry | 502.59
340 K, Vacuum adiabatic calorimetry | 502.96
342.43 K, Small (less than 1 g) adiabatic calorimetry | 504.71
345.39 K, Small (less than 1 g) adiabatic calorimetry | 506.48
348.36 K, Small (less than 1 g) adiabatic calorimetry | 508.66
350 K, Vacuum adiabatic calorimetry | 509.84
351.35 K, Small (less than 1 g) adiabatic calorimetry | 510.81
354.35 K, Small (less than 1 g) adiabatic calorimetry | 513
357.37 K, Small (less than 1 g) adiabatic calorimetry | 514.97
360.4 K, Small (less than 1 g) adiabatic calorimetry | 517.24
